One data set relates to HepG2. Nature of the data set: Cytotoxicity against human HepG2 cells assessed as reduction in cell viability after 48 hrs by MTT assay. In kind it is functional, cell-based. Conditions: HepG2, 48 h.
The test system of data set [1] is L02. Nature of the data set: Cytotoxicity against human LO2 cells assessed as reduction in cell viability after 48 hrs by MTT assay. In kind it is cell-based. Conditions: for IC50: Homo sapiens, L02, 48 h. On the technique in general: Formazan colour is commonly taken as a measure of viable cells.
Data set [2] in a line: Induction of hydroxyl radicals generation assessed as methyl radical formation by measuring DMPO/CH3 radical level at 50 uM in presence of H2O2 measured after 5 mins by ESR spectral analysis based EPR secondary radical spin-trapping method. In kind it is functional.
Data set [3] deals with A549. Nature of the data set: Cytotoxicity against human A549 cells assessed as reduction in cell viability after 48 hrs by MTT assay. In kind it is functional, cell-based. The conditions noted are these: A549, 48 h.
The test system of data set [4] is A549. Description: Induction of hydrogen peroxide-responsive hydroxyl radicals generation in human A549 cells at 7.5 uM pretreated for 3 hrs followed by 20 uM coumarin-cyanine probe 1 addition and measured after 0.5 hrs by fluorescence imaging assay. In kind it is functional, cell-based.
The subject of data set [5] is A549. Nature of the data set: Induction of hydrogen peroxide-responsive hydroxyl radicals generation in human A549 cells at 7.5 uM pretreated for 3 hrs followed by 2 uM rhodamine nitroxide probe 3 addition and measured after 12 hrs by fluorescence imaging assay. In kind it is functional, cell-based.
A short description of data set [6]: Induction of hydroxyl radicals generation assessed as DMPO/hydroxyl radical level at 50 uM in presence of H2O2 measured after 5 mins by ESR spectral analysis based EPR secondary radical spin-trapping method. In kind it is functional.
Data set [7] has as its system L02. Nature of the data set: Induction of hydrogen peroxide-responsive hydroxyl radicals generation in human LO2 cells at 7.5 uM pretreated for 3 hrs followed by 20 uM coumarin-cyanine probe 1 addition and measured after 0.5 hrs in presence of catalase by fluorescence imaging assay. It counts as cell-based. Conditions: l02, 0.5 h.
In data set [8] the test system is L02. Nature of the data set: Cytotoxicity against human LO2 cells assessed as induction of hydrogen peroxide-responsive hydroxyl radicals-mediated cell killing by measuring cell viability at 62.5 uM preincubated for 3 hrs followed by 100 uM H2O2 treatment for 45 mins and measured after 48 hrs by MTT assay. The conditions noted are these: l02, 62.5 µM. It counts as cell-based.

The test system of data set [9] is A549. Nature of the data set: Induction of hydrogen peroxide-responsive hydroxyl radicals generation in human A549 cells at 2.5 to 7.5 uM pretreated for 3 hrs followed by 20 uM coumarin-cyanine probe 1 addition and measured after 0.5 hrs by fluorescence imaging assay. In kind it is functional, cell-based.
Data set [10] relates to A549. Description: Induction of hydrogen peroxide-responsive hydroxyl radicals generation in human A549 cells at 2.5 to 7.5 uM pretreated for 3 hrs followed by 2 uM rhodamine nitroxide probe 3 addition and measured after 12 hrs by fluorescence imaging assay. It counts as functional, cell-based.
Data set [11] relates to A549. Nature of the data set: Cytotoxicity against human A549 cells assessed as induction of hydrogen peroxide-responsive hydroxyl radicals-mediated cell killing by measuring cell viability at 62.5 uM preincubated for 3 hrs followed by 50 uM H2O2 treatment for 45 mins and measured after 48 hrs by MTT assay (reference value: 75.8%). It counts as functional.
Data set [12] deals with A549. Nature of the data set: Cytotoxicity against human A549 cells assessed as reduction in cell viability co-treated with alpha-tocopherol after 48 hrs by MTT assay. It counts as functional, cell-based.
In data set [13] the test system is A549. Description: Induction of hydrogen peroxide-responsive hydroxyl radicals generation in human A549 cells at 7.5 uM pretreated for 3 hrs followed by 20 uM coumarin-cyanine probe 1 addition and measured after 0.5 hrs in presence of catalase by fluorescence imaging assay. It counts as functional, cell-based.

Here are results for three compounds from ChEMBL document CHEMBL4261612, “Designing dichlorobinaphthoquinone as a prooxidative anticancer agent based on hydrogen peroxide-responsive in situ production of hydroxyl radicals” (Eur J Med Chem, 2018).

Activity calls are given as the source filed them. The rule behind the calls is not given here.

For the compound `O=C1C(O)=C(C2=C(Cl)C(=O)c3ccccc3C2=O)C(=O)c2ccccc21`, the IC50 (usually the concentration that gives 50% inhibition) in the data set on HepG2 was 4.59 µM; in the data set on L02 [1], greater than 10 µM; with A549 [3], 4.25 µM. The result (in [2]; in the data set with A549 [4]; in the data set on A549 [5]; in [6]) was Active.

In the case of `O=C1C(Cl)=C(C2=C(Cl)C(=O)c3ccccc3C2=O)C(=O)c2ccccc21`, the Activity entry in the data set with L02 [7] is “Non-Toxic”; in the data set on L02 [8] it was “Non-Toxic”; with L02 [1] (human, l02, 48 h), “Non-Toxic”; in the data set with A549 [11] it was 52.6%. Further, the outcome (in the data set on A549 [9]; in data set [2]; in the data set with A549 [10]; with A549 [12]; in [6]) was Active. Also, the IC50 in the data set with HepG2 is 2.29 µM; in the data set on L02 [1] it was greater than 10 µM; in the data set on A549 [3] it was 2.14 µM. For the same compound, the outcome in the data set with A549 [13] was inactive.

With `O=C1C=C(C2=CC(=O)c3ccccc3C2=O)C(=O)c2ccccc21`, the IC50 with HepG2, in the data set with L02 [1] and with A549 [3] was greater than 10 µM throughout. In addition, the outcome (in data set [2]; with A549 [4]; in the data set with A549 [5]; in [6]) was inactive.
